Results: paper PMC7876048, “Mutant-selective degradation by BRAF-targeting PROTACs” (Nature Communications, 2021)

How the values were obtained:
BRAF V600E = BRAF V600E (Homo sapiens, UniProt P15056, V600E); test: Elisa kinase inhibition assay (Carna Biosciences); type: biochemical; parameters: purchased Carna Biosciences; details: Km ATP, duplicate
Protocol: Kinase assays were performed by Carna Biosciences by their protocol in duplicate using Km amounts of ATP calculated for each kinase.

[1] = test system: SK-MEL-246 cells (Class 2, BRAF^G469A); test: Cell proliferation (MTS) assay; type: cell-based
[2] = target: T1, BRAF^V600E (SK-MEL-28 cells, homozygous) (Homo sapiens, UniProt P15056, V600E); test: BRAF degradation by immunoblot in SK-MEL-28 cells; type: cell-based
T1 construct: endogenous in cells; host or cells: SK-MEL-28
T1 sequence (P15056 whole entry V600E): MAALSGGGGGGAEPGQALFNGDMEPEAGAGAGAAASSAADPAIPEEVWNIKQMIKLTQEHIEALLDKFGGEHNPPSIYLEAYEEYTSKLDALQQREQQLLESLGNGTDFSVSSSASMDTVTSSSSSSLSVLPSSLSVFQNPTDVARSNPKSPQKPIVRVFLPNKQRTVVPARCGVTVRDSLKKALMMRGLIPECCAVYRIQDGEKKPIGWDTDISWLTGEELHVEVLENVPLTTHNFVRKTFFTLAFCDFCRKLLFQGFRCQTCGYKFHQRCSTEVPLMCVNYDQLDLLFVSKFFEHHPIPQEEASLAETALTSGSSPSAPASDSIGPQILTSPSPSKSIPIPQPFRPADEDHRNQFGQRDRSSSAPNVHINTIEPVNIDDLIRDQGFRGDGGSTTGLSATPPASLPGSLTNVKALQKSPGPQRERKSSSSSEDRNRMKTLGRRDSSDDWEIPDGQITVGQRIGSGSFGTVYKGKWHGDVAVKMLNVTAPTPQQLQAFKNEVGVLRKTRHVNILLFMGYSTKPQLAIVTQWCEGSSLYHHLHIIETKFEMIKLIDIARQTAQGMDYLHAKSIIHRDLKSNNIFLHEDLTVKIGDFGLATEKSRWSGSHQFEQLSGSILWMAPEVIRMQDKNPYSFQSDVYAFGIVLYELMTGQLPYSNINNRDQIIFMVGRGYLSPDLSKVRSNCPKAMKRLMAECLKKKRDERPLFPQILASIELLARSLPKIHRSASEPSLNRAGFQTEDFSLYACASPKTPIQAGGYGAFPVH
Protocol: (§1) Cells were plated in 6 well dishes (5 × 10^5–8 × 10^5 cells) and allowed to attach overnight. […] The plates were then placed on ice and washed 1x with chilled PBS and lysed in buffer containing 25 mM Tris-HCl [pH 7.4], 0.25% sodium deoxycholate, 150 mM NaCl, 1% Triton X-100, supplemented with protease inhibitors (1x Roche protease inhibitor cocktail) and phosphatase inhibitors (10 mM NaF, 1 mM Na3OV4, and 20 mM β-glycerophosphate). Lysates were then cleared at 21,000 g for 10 min at 4 °C. Protein concentrations of the supernatants were then quantified using a Pierce BCA Protein Assay. 12–40 µg of protein were separated using a gradient (4–20%) Criterion TGX precast gel and transferred unto a nitrocellulose membrane. The membranes were then blocked in 5% non-fat milk in TBST (Tris-buffered Saline with Tween 20) for 1 h before probing with the indicated primary antibody overnight. Membranes were imaged using Bio-Rad Image Lab software using ECL prime detection reagent (GE Healthcare, RPN2232 or ThermoScientific, 34095).
(§2) Western blot data was quantified by using the band feature in Image Lab, and values were averaged and analyzed in GraphPad Prism. DC50 and DMAX values were fitted using a three parameter [inhibitor] versus response and reported directly from the Prism output. Mean ± SD and unpaired t-tests were performed in GraphPad Prism.

[3] = test system: CAL-12-T cells (Class 3, BRAF^G466V); test: Cell proliferation (MTS) assay; type: cell-based; details: 5 days
Protocol: […] 2 mg/ml MTS (Promega Corp., Madison, WI: G5421) and 25 μM phenazine methosulfate (Sigma, St. Louis, MO) were combined 19:1 and then added to cells (1 volume combined reagent: 5 volumes medium) and incubated for 1–3 h. Mitochondrial reduction of MTS to the formazan derivative was monitored by measuring the medium’s absorbance at 480 nm using a Perkin Elmer Envision Plate reader.

[4] = test system: SK-MEL-28 cells (Class 1, BRAF^V600E); test: Cell proliferation (MTS) assay; type: cell-based; details: Homo sapiens, 72 h, 3 days, read-out: EC50, cell growth
[5] = test system: SK-MEL-239 C4 cells (BRAF^WT/BRAF-p61^V600E); test: Cell proliferation (MTS) assay; type: cell-based; details: 5 days
[6] = test system: MEK and ERK phosphorylation (SK-MEL-28 cells); test: MEK and ERK phosphorylation by immunoblot in SK-MEL-28 cells; type: cell-based
Protocol: as §1, §2

[7] = test system: H1666 cells (Class 3, BRAF^G466V); test: Cell proliferation (MTS) assay; type: cell-based; details: 5 days

BRAF V600E, sequence (P15056 whole entry V600E): as above

Row | IC50 (BRAF V600E) [nM] | EC50 ([1]; 120 h, 5-day treatment, read-out: EC50, cell growth) [nM] | effect on BRAF protein levels [2] | EC50 [4] [nM] | Compound | inhibition of cell growth / effect on cell viability [3] | effect on cell growth [5] | concentration giving maximal inhibition of MEK and ERK phosphorylation / maximal suppression of p-ERK [6] [nM] | inhibition of cellular growth ([1]; 5 days, at concentrations above 1 μM, not sustained at 10 μM) | cell growth inhibition [7]
1 | 30 | 278 ± 1.07 | did not decrease BRAF protein levels | 243 ± 1.09 | CCCS(=O)(=O)Nc1ccc(F)c(C(=O)c2c[nH]c3ncc(-c4ccc(N5CCN(CC(=O)N[C@H](C(=O)N6C[C@@H](O)C[C@H]6C(=O)NCc6ccc(-c7scnc7C)cc6)C(C)(C)C)CC5)cc4)cc23)c1F [SJF-0661] | minimal effect on cell viability | minimal effect | 100 | – | –
2 | – | – | – | 215 ± 1.09 | CCCS(=O)(=O)Nc1ccc(F)c(C(=O)c2c[nH]c3ncc(-c4ccc(Cl)cc4)cc23)c1F [vemurafenib, reference compound] | minimal effect on cell viability | minimal effect | – | some inhibition | less than 50%
